Among the data in patent US8906917B2, “Pyrimidine cyclohexyl glucocorticoid receptor modulators” (Corcept Therapeutics, Inc., priority 2011, dated 2014) are Ki values, retold here.

Molecules are shown by their SMILES.

In assay [1] the target is T1, Human Recombinant Glucocorticoid Receptor (Homo sapiens, UniProt P04150).
T1 construct: This GR was a full-length steroid hormone receptor; host or cells: recombinant baculovirus-infected insect cells
T1 sequence (P04150 1-777): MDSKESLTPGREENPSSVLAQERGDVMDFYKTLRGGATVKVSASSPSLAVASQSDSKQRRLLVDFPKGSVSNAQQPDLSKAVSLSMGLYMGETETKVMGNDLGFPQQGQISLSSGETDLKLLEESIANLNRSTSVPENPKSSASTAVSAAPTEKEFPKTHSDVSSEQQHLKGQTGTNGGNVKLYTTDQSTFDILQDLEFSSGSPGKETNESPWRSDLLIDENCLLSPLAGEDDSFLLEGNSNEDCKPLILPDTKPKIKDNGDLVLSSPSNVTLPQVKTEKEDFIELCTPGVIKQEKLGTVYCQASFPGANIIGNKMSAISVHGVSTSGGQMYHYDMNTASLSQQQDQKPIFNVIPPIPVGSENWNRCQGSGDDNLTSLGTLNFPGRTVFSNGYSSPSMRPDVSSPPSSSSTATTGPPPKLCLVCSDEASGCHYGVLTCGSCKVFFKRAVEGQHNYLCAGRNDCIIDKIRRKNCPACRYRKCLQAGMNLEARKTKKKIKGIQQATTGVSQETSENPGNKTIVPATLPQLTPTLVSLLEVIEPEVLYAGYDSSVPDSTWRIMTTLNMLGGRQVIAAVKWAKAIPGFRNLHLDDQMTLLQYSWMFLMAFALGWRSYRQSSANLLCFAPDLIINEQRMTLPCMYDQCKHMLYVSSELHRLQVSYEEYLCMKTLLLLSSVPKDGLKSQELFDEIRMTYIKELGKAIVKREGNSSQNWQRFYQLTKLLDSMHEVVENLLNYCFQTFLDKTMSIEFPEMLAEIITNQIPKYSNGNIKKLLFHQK
The experiment in a line: Glucocorticoid receptor binding displacement assay with 3H-dexamethasone. Particulars: displacement of 2.5 nM 3H-dexamethasone, 2.5 hrs at 4° C.; Ki from IC50 by Cheng-Prusoff; read-out: GR Binding Ki. On the procedure:
Binding protocol: Compounds were tested in a binding displacement assay using human recombinant glucocorticoid receptor with ^3H-dexamethasone as the ligand. The source of the receptor was recombinant baculovirus-infected insect cells. This GR was a full-length steroid hormone receptor likely to be associated with heat-shock and other endogenous proteins.
For the IC50 determinations, test compounds were tested at 6 concentrations in duplicate. Test compounds were diluted from 10 mM stock in 100% DMSO. The tested solutions were prepared at 2× final assay concentration in 2% DMSO/assay buffer.
All reagents and the assay plate were kept on ice during the addition of reagents. The reagents were added to wells of a v-bottomed polypropylene plate in the following order: 25 μl of 10 nM 3H-dexamethasone solution, 50 μl of TB/NSB/compound solution and 25 μl of 2 nM GR solution. After the additions, the incubation mixture was mixed and incubated for 2.5 hrs at 4° C.
Alter 2.5 hrs incubation, unbound counts were removed with dextran coated charcoal (DCC) as follows: 15 μl of DCC solution (10% DCC in assay buffer) was added to all wells and mixed (total volume 115 μl). The plate was centrifuged at 4000 rpm for 10 minutes at 4° C. 75 μl of the supernatants was carefully pipetted into an optiplate. 150 μl of scintillation cocktail were added (Microscint-40, Perkin Elmer). The plate was vigorously shaken for approx. 10 minutes and counted on Topcount.
The IC50 values were converted to Ki (the inhibition constant) using the Cheng-Prusoff equation.
Reagents: Assay buffer: 10 mM potassium phosphate buffer pH 7.6 containing 5 mM DTT, 10 mM sodium molybdate, 100 μM EDTA and 0.1% BSA.

In assay [2] the target is T2, glucocorticoid receptors (endogenous) in SW1353/MMTV-5 cells (Homo sapiens, UniProt P04150).
T2 construct: contains endogenous glucocorticoid receptors; endogenous in cells; host or cells: SW1353/MMTV-5 (human chondrosarcoma, stably transfected with pMAMneo-Luc reporter)
T2 sequence (P04150 1-777): T1 sequence (P04150 1-777)
The experiment in a line: GR functional assay using SW1353/MMTV-5 cells (MMTV-GRE luciferase reporter). In kind it is cell-based. On the procedure:
SW1353/MMTV-5 is an adherent human chondrosarcoma cell line that contains endogenous glucocorticoid receptors. It was transacted with a plasmid (pMAMneo-Luc) encoding firefly luciferase located behind a glucocorticoid-responsive element (GRE) derived from a viral promoter (long terminal repeat of mouse mammary tumor virus). A stable cell line SW1353/MMTV-5 was selected with geneticin, which was required to maintain this plasmid.
SW1353/MMTV-5 cells were distributed in 96-well plates and incubated in medium (without geneticin) for 24 hrs.
A general note: A reporter such as luciferase makes a cellular process visible.

Broadly, the Ki is the dissociation constant of the complex between target and ligand, obtained from inhibition or displacement. As for `O=c1[nH]c(C2=CCC(c3ccccc3)CC2)c(Cc2ccccc2)c(=O)[nH]1` (centres unmarked) [Compound 2a, 5-Benzyl-6-(4-phenylcyclohex-1-enyl)-1H-pyrimidine-2,4-dione], the inhibition constant (Ki) was greater than 0.01 µM in assay [1] and greater than 0.1 µM in assay [2].

For the compound `O=c1[nH]c(=O)c(Cc2c(Cl)cccc2Cl)c([C@H]2CC[C@H](c3ccccc3)CC2)[nH]1` [Compound 3e], the Ki fell in the range of 0.005 to 0.01 µM in assay [1] and 0.05 to 0.1 µM in assay [2].

Take `O=c1[nH]c(=O)c(Cc2ccccc2Cl)c([C@H]2CC[C@H](c3ccccc3)CC2)[nH]1` [Compound 3c]: the Ki in assay [1] is less than 0.005 µM; in assay [2], less than 0.05 µM.

As to `O=c1[nH]c(=O)c(Cc2cc(Cl)ccc2Cl)c([C@H]2CC[C@H](c3ccccc3)CC2)[nH]1` [Compound 3g], the Ki in assay [1] was less than 0.005 µM; in assay [2], less than 0.05 µM.

As to `Cc1ccnc(Cc2c(=O)[nH]c(=O)[nH]c2[C@H]2CC[C@H](c3ccccc3)CC2)c1` [Compound 3q], the results for the Ki in assay [1] and in assay [2] were greater than 0.01 µM and less than 0.05 µM, respectively.

As to `Cc1ccccc1Cc1c(C2=CCC(c3ccccc3)CC2)[nH]c(=O)[nH]c1=O` (centres unmarked) [Compound 2d], the Ki in assay [1] is greater than 0.01 µM; in assay [2], greater than 0.1 µM.

With `O=c1[nH]c(=O)c(Cc2ccccc2)c([C@H]2CC[C@@H](c3ccccc3)CC2)[nH]1` [Compound 3bb], the inhibition constant (Ki) in assay [1] was greater than 0.01 µM; in assay [2], greater than 0.1 µM.

With `Cc1cccc(Cc2c(C3=CCC(c4ccccc4)CC3)[nH]c(=O)[nH]c2=O)c1` (centres unmarked) [Compound 2b], the figures for the Ki in assay [1] and in assay [2] were 0.005 to 0.01 µM and 0.05 to 0.1 µM, respectively.

As for `Cn1c(=O)[nH]c([C@H]2CC[C@H](c3ccccc3)CC2)c(Cc2ccccc2)c1=O` [Compound 13h], the figures for the Ki in assay [1] and in assay [2] were greater than 0.01 µM and 0.05 to 0.1 µM, respectively.

For `Cc1cccc(Cc2c(=O)[nH]c(=S)[nH]c2[C@H]2CC[C@H](c3ccccc3)CC2)c1` [Compound 12g, (E)-6-(4-Phenylcyclohexyl)-2-thioxo-5-(3-methylbenzyl)-2,3-dihydro-1H-pyrimidin-4-one], the results for the Ki in assay [1] and in assay [2] were greater than 0.01 µM and greater than 0.1 µM, respectively.

As to `O=c1[nH]c([C@H]2CC[C@H](c3ccccc3)CC2)c(Cc2cccc(C(F)(F)F)c2)c(=O)n1CCO` [Compound 13f, (E)-3-(2-Hydroxy-ethyl)-6-(4-phenyl-cyclohexyl)-5-(3-trifluoromethyl-benzyl)-1H-pyrimidine-2,4-dione], the Ki in assay [1] is greater than 0.01 µM; in assay [2], greater than 0.1 µM.

Consider `O=c1[nH]c(=O)c(Cc2cccc(C(F)(F)F)c2)c([C@H]2CC[C@H](c3ccccc3)CC2)[nH]1` [Compound 3b, (E)-6-(4-Phenylcyclohexyl)-5-(3-trifluoromethylbenzyl)-1H-pyrimidine-2,4-dione], for which the Ki in assay [1] was 0.005 to 0.01 µM; in assay [2], less than 0.05 µM.

For `O=c1[nH]c(=O)c(Cc2cccc(Cl)c2Cl)c([C@H]2CC[C@H](c3ccccc3)CC2)[nH]1` [Compound 3d], the inhibition constant (Ki) in assay [1] is less than 0.005 µM; in assay [2], less than 0.05 µM.

As for `O=c1[nH]c([C@H]2CC[C@H](c3ccccc3)CC2)c(Cc2cccc(Cl)c2Cl)c(=O)n1CCCN1CCOCC1` [Compound 13c], the Ki in assay [1] was greater than 0.01 µM; in assay [2], greater than 0.1 µM.

Consider `Cc1cccc(Cc2c(=O)n(CCN(C)C)c(=O)[nH]c2[C@H]2CC[C@H](c3ccccc3)CC2)c1` [Compound 13b], for which the Ki in assay [1] is greater than 0.01 µM; in assay [2], greater than 0.1 µM.

For `O=c1[nH]c(=O)c(Cc2ccc(F)c(Cl)c2)c([C@H]2CC[C@H](c3ccccc3)CC2)[nH]1` [Compound 3aa], the Ki in assay [1] was greater than 0.01 µM; in assay [2] it was less than 0.05 µM.

As to `Cc1cccc(Cc2c(=O)[nH]c(=O)[nH]c2[C@H]2CC[C@H](c3ccccc3)CC2)n1` [Compound 3j], the Ki was greater than 0.01 µM in assay [1] and 0.05 to 0.1 µM in assay [2].

Turning to `O=c1[nH]c(=O)c(Cc2ccc(F)cc2F)c([C@H]2CC[C@H](c3ccccc3)CC2)[nH]1` [Compound 3y], the Ki is 0.005 to 0.01 µM in assay [1] and 0.05 to 0.1 µM in assay [2].

Take `O=c1[nH]c(C2=CCC(c3ccccc3)CC2)c(Cc2ccccc2Cl)c(=O)[nH]1` (centres unmarked) [Compound 2c]: the Ki in assay [1] is 0.005 to 0.01 µM; in assay [2], greater than 0.1 µM.
